Data as given in patent US20170022171A1, “2,5-DISUBSTITUTED CYCLOPENTANECARBOXYLIC ACIDS AND THEIR USE” (Bayer Pharma Aktiengesellschaft, priority 2014, published 2017).

Molecular target: T1, human macrophage elastase (HME/hMMP-12) (Homo sapiens, UniProt P39900)
T1 construct: 0.5 nM HME; purchased R&D Systems 917-MP
Assay: In vitro HME inhibition test (standard or high-sensitivity)
Type: biochemical
Conditions: in some cases mean values
Description: The potency of the compounds according to the invention with respect to HME (MMP-12) is determined in an in vitro inhibition test. The HME-mediated amidolytic cleavage of a suitable peptide substrate leads to an increase in fluorescent light therein. The signal intensity of the fluorescent light is directly proportional to the enzyme activity. The active concentration of a test compound at which half the enzyme is inhibited (50% signal intensity of the fluorescent light) is reported as the IC50 value.
In a 384 hole microtiter plate, in a total test volume of 41 the test buffer (0.1 M HEPES pH 7.4, 0.15 M NaCl, 0.03 M CaCl2, 0.004 mM ZnCl2, 0.02 M EDTA, 0.005% Brij®), the enzyme (0.5 nM HME; from R&D Systems, 917-MP, autocatalytic activation according to the manufacturer's instructions) and the intramolecularly quenched substrate [5 μM Mca-Pro-Leu-Gly-Leu-Glu-Glu-Ala-Dap(Dnp)-NH2; Bachem, M-2670] are incubated in the absence and presence of the test substance (as a solution in DMSO) at 37° C. for two hours. The fluorescence intensity of the test mixtures is measured (excitation […], emission 393 nm). The IC50 values are ascertained by plotting the fluorescent light intensity against the active ingredient concentration.
In this case, an enzyme concentration ten times lower is used (final concentration, for example, 0.05 nM) in order to achieve an elevated test sensitivity. The incubation period chosen for the test is correspondingly longer (for example 16 hours).

T1 sequence (P39900 106-470): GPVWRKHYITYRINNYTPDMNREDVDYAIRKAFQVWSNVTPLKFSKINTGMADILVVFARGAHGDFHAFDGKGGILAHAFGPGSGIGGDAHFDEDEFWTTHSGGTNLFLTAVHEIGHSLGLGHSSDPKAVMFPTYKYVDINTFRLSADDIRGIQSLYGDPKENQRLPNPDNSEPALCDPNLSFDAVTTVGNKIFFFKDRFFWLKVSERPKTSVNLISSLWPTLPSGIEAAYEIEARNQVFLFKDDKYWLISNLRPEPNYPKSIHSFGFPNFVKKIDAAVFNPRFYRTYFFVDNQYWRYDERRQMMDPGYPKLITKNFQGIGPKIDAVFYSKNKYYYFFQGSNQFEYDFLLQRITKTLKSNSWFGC

Structure (SMILES) | IC50 [nM]
O=C(O)[C@@H]1[C@@H](Cn2nnc3ccc(C(F)(F)F)cc3c2=O)CC[C@H]1C(=O)c1ccc(OCC2CCC2)cc1 (single isomer, unassigned) [Example 48, (−)-(1RS,2RS,5SR)-2-[4-(Cyclobutylmethoxy)benzoyl]-5-{[4-oxo-6-(trifluoromethyl)-1,2,3-benzotriazin-3(4H)-yl]methyl}cyclopentanecarboxylic acid] | 290
O=C(O)[C@@H]1[C@@H](Cn2nnc3ccc(C(F)(F)F)cc3c2=O)CC[C@H]1C(=O)c1ccc(OCCC2CCCCC2)cc1 (single isomer, unassigned) [Example 51, (−)-(1RS,2RS,5SR)-2-[4-(2-Cyclohexylethoxy)benzoyl]-5-{[4-oxo-6-(trifluoromethyl)-1,2,3-benzotriazin-3(4H)-yl]methyl}cyclopentanecarboxylic acid] | 30
O=C(O)[C@@H]1[C@@H](Cn2nnc3ccc(C(F)(F)F)cc3c2=O)CC[C@H]1C(=O)c1ccc(OCCC2CCCC2)cc1 (single isomer, unassigned) [Example 54, (−)-(1RS,2RS,5SR)-2-[4-(2-Cyclopentylethoxy)benzoyl]-5-{[4-oxo-6-(trifluoromethyl)-1,2,3-benzotriazin-3(4H)-yl]methyl}cyclopentanecarboxylic acid] | 22
CC(C)CCOc1ccc(C(=O)[C@@H]2CC[C@H](Cn3nnc4ccc(C(F)(F)F)cc4c3=O)[C@H]2C(=O)O)cc1 (single isomer, unassigned) [Example 61, (+)-(1RS,2RS,5SR)-2-[4-(3-Methylbutoxy)benzoyl]-5-{[4-oxo-6-(trifluoromethyl)-1,2,3-benzotriazin-3(4H)-yl]methyl}cyclopentanecarboxylic acid] | 0.032
CC(C)CCOc1ccc(C(=O)[C@@H]2CC[C@H](Cn3nnc4ccc(C(F)(F)F)cc4c3=O)[C@H]2C(=O)O)cc1 (single isomer, unassigned) [Example 62, (−)-(1RS,2RS,5SR)-2-[4-(3-Methylbutoxy)benzoyl]-5-{[4-oxo-6-(trifluoromethyl)-1,2,3-benzotriazin-3(4H)-yl]methyl}cyclopentanecarboxylic acid] | 4.7
CCCCOc1ccc(C(=O)[C@@H]2CC[C@H](Cn3nnc4ccc(C(F)(F)F)cc4c3=O)[C@H]2C(=O)O)cc1 (single isomer, unassigned) [Example 68, (−)-(1RS,2RS,5SR)-2-(4-Butoxybenzoyl)-5-{[4-oxo-6-(trifluoromethyl)-1,2,3-benzotriazin-3(4H)-yl]methyl}cyclopentanecarboxylic acid] | 2.1
O=C(O)[C@@H]1[C@@H](Cn2nnc3ccc(C(F)(F)F)cc3c2=O)CC[C@H]1C(=O)c1ccc(SCc2ccccc2)cc1 (single isomer, unassigned) [Example 74, (−)-(1RS,2RS,5SR)-2-[4-(Benzylsulphanyl)benzoyl]-5-{[4-oxo-6-(trifluoromethyl)-1,2,3-benzotriazin-3(4H)-yl]methyl}cyclopentanecarboxylic acid] | 160
O=C(O)[C@@H]1[C@@H](Cn2nnc3ccc(C(F)(F)F)cc3c2=O)CC[C@H]1C(=O)c1ccc(SCc2ccc(Cl)c(Cl)c2)cc1 (single isomer, unassigned) [Example 81, (−)-(1RS,2RS,5SR)-2-{4-[(3,4-Dichlorobenzyl)sulphanyl]benzoyl}-5-{[4-oxo-6-(trifluoromethyl)-1,2,3-benzotriazin-3(4H)-yl]methyl}cyclopentanecarboxylic acid] | 25
Cc1ccc2nnn(C[C@H]3CC[C@@H](C(=O)c4ccc(OCc5ccccc5)cc4)[C@@H]3C(=O)O)c(=O)c2c1 (single isomer, unassigned) [Example 93, (−)-(1RS,2RS,5SR)-2-[4-(Benzyloxy)benzoyl]-5-[(6-methyl-4-oxo-1,2,3-benzotriazin-3(4H)-yl)methyl]cyclopentanecarboxylic acid] | 190
Cc1ccc2nnn(C[C@H]3CC[C@@H](C(=O)c4ccc(OCc5ccc(F)cc5)cc4)[C@@H]3C(=O)O)c(=O)c2c1 (single isomer, unassigned) [Example 96, (−)-(1RS,2RS,5SR)-2-{4-[(4-Fluorobenzyl)oxy]benzoyl}-5-[(6-methyl-4-oxo-1,2,3-benzotriazin-3(4H)-yl)methyl]cyclopentanecarboxylic acid] | 120
Cc1cccc(COc2ccc(C(=O)[C@@H]3CC[C@H](Cn4nnc5ccc(C)cc5c4=O)[C@H]3C(=O)O)cc2)c1 (single isomer, unassigned) [Example 99, (−)-(1RS,2RS,5SR)-2-{4-[(3-Methylbenzyl)oxy]benzoyl}-5-[(6-methyl-4-oxo-1,2,3-benzotriazin-3(4H)-yl)methyl]cyclopentanecarboxylic acid] | 210

The remaining molecules from weak to strong by IC50, led by results:

IC50 [nM] | Structure (SMILES)
14 | Cc1ccc2nnn(C[C@H]3CC[C@@H](C(=O)c4ccc(OCc5cccc(Cl)c5)cc4)[C@@H]3C(=O)O)c(=O)c2c1 (single isomer, unassigned) [Example 105, (−)-(1RS,2RS,5SR)-2-{4-[(3-Chlorobenzyl)oxy]benzoyl}-5-[(6-methyl-4-oxo-1,2,3-benzotriazin-3(4H)-yl)methyl]cyclopentanecarboxylic acid]
8.8 | O=C(O)[C@@H]1[C@@H](Cn2nnc3ccc(C(F)(F)F)cc3c2=O)CC[C@H]1C(=O)c1ccc(SCc2cccc(Cl)c2)cc1 (single isomer, unassigned) [Example 78, (−)-(1RS,2RS,5SR)-2-{4-[(3-Chlorobenzyl)sulphanyl]benzoyl}-5-{[4-oxo-6-(trifluoromethyl)-1,2,3-benzotriazin-3(4H)-yl]methyl}cyclopentanecarboxylic acid]
8.7 | Cc1ccc2nnn(C[C@H]3CC[C@@H](C(=O)c4ccc(OCc5cccc(C(F)(F)F)c5)cc4)[C@@H]3C(=O)O)c(=O)c2c1 (single isomer, unassigned) [Example 102, (−)-(1RS,2SR,5RS)-2-[(6-Methyl-4-oxo-1,2,3-benzotriazin-3(4H)-yl)methyl]-5-(4-{[3-(trifluoromethyl)benzyl]oxy}benzoyl)cyclopentanecarboxylic acid]
4.2 | CCCCCCOc1ccc(C(=O)[C@@H]2CC[C@H](Cn3nnc4ccc(C(F)(F)F)cc4c3=O)[C@H]2C(=O)O)cc1 (single isomer, unassigned) [Example 59, (−)-(1RS,2RS,5SR)-2-[4-(Hexyloxy)benzoyl]-5-{[4-oxo-6-(trifluoromethyl)-1,2,3-benzotriazin-3(4H)-yl]methyl}cyclopentanecarboxylic acid]
2.7 | CCCOc1ccc(C(=O)[C@@H]2CC[C@H](Cn3nnc4ccc(C(F)(F)F)cc4c3=O)[C@H]2C(=O)O)cc1 (single isomer, unassigned) [Example 71, (−)-(1RS,2SR,5RS)-2-{[4-Oxo-6-(trifluoromethyl)-1,2,3-benzotriazin-3(4H)-yl]methyl}-5-(4-propoxybenzoyl)cyclopentanecarboxylic acid]
1.2 | CCCCCOc1ccc(C(=O)[C@@H]2CC[C@H](Cn3nnc4ccc(C(F)(F)F)cc4c3=O)[C@H]2C(=O)O)cc1 (single isomer, unassigned) [Example 65, (−)-(1RS,2SR,5RS)-2-{[4-Oxo-6-(trifluoromethyl)-1,2,3-benzotriazin-3(4H)-yl]methyl}-5-[4-(pentyloxy)benzoyl]cyclopentanecarboxylic acid]
1.1 | CCCCCSc1ccc(C(=O)[C@@H]2CC[C@H](Cn3nnc4ccc(C(F)(F)F)cc4c3=O)[C@H]2C(=O)O)cc1 (single isomer, unassigned) [Example 90, (−)-(1RS,2SR,5RS)-2-{[4-Oxo-6-(trifluoromethyl)-1,2,3-benzotriazin-3(4H)-yl]methyl}-5-[4-(pentylsulphanyl)benzoyl]cyclopentanecarboxylic acid]
0.068 | CCCCCOc1ccc(C(=O)[C@@H]2CC[C@H](Cn3nnc4ccc(C(F)(F)F)cc4c3=O)[C@H]2C(=O)O)cc1 (single isomer, unassigned) [Example 64, (+)-(1RS,2SR,5RS)-2-{[4-Oxo-6-(trifluoromethyl)-1,2,3-benzotriazin-3(4H)-yl]methyl}-5-[4-(pentyloxy)benzoyl]cyclopentanecarboxylic acid]
0.045 | CCCCCSc1ccc(C(=O)[C@@H]2CC[C@H](Cn3nnc4ccc(C(F)(F)F)cc4c3=O)[C@H]2C(=O)O)cc1 (single isomer, unassigned) [Example 89, (+)-(1RS,2SR,5RS)-2-{[4-Oxo-6-(trifluoromethyl)-1,2,3-benzotriazin-3(4H)-yl]methyl}-5-[4-(pentylsulphanyl)benzoyl]cyclopentanecarboxylic acid]
0.031 | CCCOc1ccc(C(=O)[C@@H]2CC[C@H](Cn3nnc4ccc(C(F)(F)F)cc4c3=O)[C@H]2C(=O)O)cc1 (single isomer, unassigned) [Example 70, (+)-(1RS,2SR,5RS)-2-{[4-Oxo-6-(trifluoromethyl)-1,2,3-benzotriazin-3(4H)-yl]methyl}-5-(4-propoxybenzoyl)cyclopentanecarboxylic acid]
0.025 | Cc1ccc2nnn(C[C@H]3CC[C@@H](C(=O)c4ccc(OCc5ccc(F)cc5)cc4)[C@@H]3C(=O)O)c(=O)c2c1 (single isomer, unassigned) [Example 95, (+)-(1RS,2RS,5SR)-2-{4-[(4-Fluorobenzyl)oxy]benzoyl}-5-[(6-methyl-4-oxo-1,2,3-benzotriazin-3(4H)-yl)methyl]cyclopentanecarboxylic acid]
